From patent US8507528B2, “2-alkyl-indazole compounds for the treatment of certain cns-related disorders” (Aziende Chimiche Riunite Angelini Francesco A.C.R.A.F. …, priority 2006, dated 2013)
Structures can show the parent of a compound that is named as a salt. Where two headings read alike, the source gives them in different places.

Assays:
[1] = target: T1, human serotonin 5-HT2A receptor (Homo sapiens, UniProt P28223); experiment: Test B: binding to the human serotonin 5-HT2A receptor; conditions: human recombinant cells, six concentrations; read-out: (h)5-HT2a (pKi) (converted)
T1 construct: expressed in transfected cells
T1 sequence (P28223 whole entry): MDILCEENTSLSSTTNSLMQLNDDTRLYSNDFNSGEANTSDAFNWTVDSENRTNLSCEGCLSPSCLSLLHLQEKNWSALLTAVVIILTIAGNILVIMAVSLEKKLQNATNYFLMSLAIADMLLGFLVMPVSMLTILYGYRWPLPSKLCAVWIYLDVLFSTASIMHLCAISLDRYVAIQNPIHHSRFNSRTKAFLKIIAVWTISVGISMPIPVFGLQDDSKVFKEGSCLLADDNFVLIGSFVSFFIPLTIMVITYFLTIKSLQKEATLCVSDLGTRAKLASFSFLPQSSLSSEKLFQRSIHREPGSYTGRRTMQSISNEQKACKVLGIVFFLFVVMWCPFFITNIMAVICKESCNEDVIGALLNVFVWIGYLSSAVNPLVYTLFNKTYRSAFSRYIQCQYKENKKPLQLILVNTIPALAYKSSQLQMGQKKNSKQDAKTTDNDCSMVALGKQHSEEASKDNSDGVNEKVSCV
Excerpt: (§1) These tests measured the percentage inhibition induced by the compounds of formula (I) according to the present invention at six different concentrations, from which the pKi values of the compounds in relation to the individual receptors were obtained.
Binding to the human serotonin 5-HT2A receptor was effected by the standard methodology described in Bonhaus D. W., Bach C., De Souza A., Salazar F. H., Matsuoka B. D., Zuppan P., Chan H. W., Eglen R. M. (1995) “The pharmacology and distribution of human 5-hydroxytryptamine2B (5-HT2B) receptor gene products: comparison with 5-HT2A and 5-HT2C receptors.” Br. J. Pharmacol. 115(4): 622-628; and Saucier C., Albert P. R. (1997) “Identification of an endogenous 5-hydroxytryptamine2A receptor in NIH-3T3 cells: agonist-induced down-regulation involves decreases in receptor RNA and number.” J. Neurochem. 68(5): 1998-2011. The test compounds were tested in duplicate at a single concentration of 1 μM and then at six concentrations to find the pKi values of the individual compounds.

[2] = target: T2, serotonin 5-HT2C receptor (Homo sapiens, UniProt P28335); experiment: Test B: binding to the serotonin 5-HT2C receptor; conditions: human recombinant cells (CHO-K1), six concentrations; read-out: (h)5-HT2c (pKi) (converted)
T2 construct: expressed in transfected cells; host or cells: CHO-K1
T2 sequence (P28335 33-458): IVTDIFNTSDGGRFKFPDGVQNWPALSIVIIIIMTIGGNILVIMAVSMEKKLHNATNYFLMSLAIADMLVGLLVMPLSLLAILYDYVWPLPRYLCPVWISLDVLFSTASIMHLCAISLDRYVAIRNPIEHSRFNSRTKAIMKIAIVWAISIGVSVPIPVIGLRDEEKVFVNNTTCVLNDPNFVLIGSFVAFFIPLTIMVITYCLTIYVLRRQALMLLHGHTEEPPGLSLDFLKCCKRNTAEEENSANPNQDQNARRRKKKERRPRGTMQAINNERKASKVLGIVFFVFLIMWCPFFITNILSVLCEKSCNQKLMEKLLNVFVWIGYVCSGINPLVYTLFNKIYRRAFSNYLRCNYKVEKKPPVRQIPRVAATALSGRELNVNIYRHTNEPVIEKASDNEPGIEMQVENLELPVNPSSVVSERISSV
Excerpt: as §1
Binding to the serotonin 5-HT2C receptor was effected using the standard methodology described in: Wolf W. A. and Schutz J. S. (1997) “The serotonin 5-HT2C receptor is a prominent serotonin receptor in basal ganglia: evidence from functional studies on serotonin-mediated phosphoinositide hydrolysis.” J. Neurochem. 69: 1449-1458. CHO-K1 recombinant cells for expression of the human enzyme were used as starting material, and SB242084 as reference compound. The test compounds were tested in duplicate at a single concentration of 1 μM and then at six concentrations to find the pKi values of the individual compounds.

[3] = target: T3, rat 5-HT2A serotonin receptor (Rattus norvegicus, UniProt P14842); experiment: biochemical
T3 sequence (P14842 whole entry): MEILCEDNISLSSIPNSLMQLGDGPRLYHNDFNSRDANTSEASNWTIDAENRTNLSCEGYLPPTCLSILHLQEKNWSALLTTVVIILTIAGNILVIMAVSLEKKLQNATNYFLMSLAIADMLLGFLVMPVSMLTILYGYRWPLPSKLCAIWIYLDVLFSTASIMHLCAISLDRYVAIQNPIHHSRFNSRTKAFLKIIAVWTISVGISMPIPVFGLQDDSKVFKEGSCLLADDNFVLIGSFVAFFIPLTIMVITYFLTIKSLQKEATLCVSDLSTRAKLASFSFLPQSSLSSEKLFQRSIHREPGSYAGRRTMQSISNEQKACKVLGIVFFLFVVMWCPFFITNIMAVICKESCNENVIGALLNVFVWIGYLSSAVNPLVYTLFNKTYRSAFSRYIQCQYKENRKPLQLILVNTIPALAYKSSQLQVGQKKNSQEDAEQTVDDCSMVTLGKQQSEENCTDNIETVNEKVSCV
Experimental: (§2) The non-specific binding was measured in the presence of 10 μM methysergide. The assay was conducted in Tris-HCl 50 mM buffer (pH 7.4 at 37° C.), with incubation for 2 hours at 37° C. The test compounds were dissolved in DMSO, then diluted in buffer (final DMSO concentration 0.01%) and plated on 96-well plates. Methysergide and/or ketanserin were used as reference compounds.
(§3) Binding is initiated by addition of 200 μl of homogenate (450 μg/ml protein content); after incubation, the membranes were filtered on glass-fibre filters (GF/B) (Unifilter, Packard) treated with 0.3% polyethyleneimine. Then the filters were washed with buffer solution and stove-dried for 30 minutes at 45° C. The scintillation liquid was added to each well, and 10 hours later the radioactivity was measured for 1 minute using a TopCount (Packard). The test compounds were tested in duplicate at 8 concentrations (from 10^-12 to 10^-5 M).
(§4) The IC50 values for each compound were calculated using non-linear regression analysis (GraphPad PRISM software) and the inhibition constants Ki were determined using the equation described by Cheng Y. and Prussof W. H. (1973) “Relationship between the inhibition constant (Ki) and the concentration of inhibitor which causes 50 percent inhibition (150) of an enzyme reaction.” Biochem. Pharmacol. 22: 3099-3108.

[4] = target: T3, rat 5-HT2A serotonin receptor
Experimental: as §2, §3, §4

Compound	Ki [3] [nM]	melting point	other results
Cn1nc2ccccc2c1C(=O)NCC1CCN(CCc2ccc(O)cc2)CC1 [Compound 3, N3-({1-[2-(4-Hydroxyphenyl)ethyl]hexahydro-4-pyridinyl}methyl-2-methyl-2H-3-indazolecarboxamide hydrochloride hydrate]	47.9	–	Ki [1]: 2.09 nM; Ki [2]: 148 nM
COc1ccc(CCN2CCC(CNC(=O)c3c4ccccc4nn3C)CC2)cc1.Cl [Compound 5, N-({1-[2-(4-Methoxyphenyl)ethyl]piperidin-4-yl}methyl)-2-methyl-2H-indazole-3-carboxamide hydrochloride]	1580	80 °C (dec.)	–
Cn1nc2ccccc2c1C(=O)NCC1CCN(CCc2ccc(F)cc2F)CC1 [Compound 23, N-({1-[2-(2,4-difluorophenyl)ethyl]piperidin-4-yl}methyl)-2-methyl-2H-indazole-3-carboxamide]	–	122 to 126 °C	–
COCCn1nc2ccccc2c1C(=O)NCC1CCN(CCc2ccc(F)cc2)CC1.Cl [Compound 7, N-({1-[2-(4-Fluorophenyl)ethyl]piperidin-4-yl}methyl)-2-(2-methoxyethyl)-2H-indazole-3-carboxamide hydrochloride]	91.2	193 to 194 °C	–
Cn1nc2ccccc2c1C(=O)NCC1CCN(CCc2ccc(C(F)(F)F)cc2)CC1 [Compound 17, 2-methyl-N-[(1-{2-[4-(trifluoromethyl)phenyl]ethyl}piperidin-4-yl)methyl]-2H-indazole-3-carboxamide]	–	174 to 176 °C	–
Cn1nc2ccccc2c1C(=O)N1CCC(CNCCc2ccc(F)cc2F)CC1 [Compound 9, 2-(2,4-Difluorophenyl)-N-({1-[(2-methyl-2H-indazole-3-yl)carbonyl]piperidin-4-yl}methyl)ethanamine hydrochloride]	631	–	–
COc1ccc2nn(C)c(C(=O)NCC3CCN(CCc4ccc(O)cc4)CC3)c2c1 [Compound 4, N-({1-[2-(4-Hydroxyphenyl)ethyl]piperidin-4-yl}methyl)-5-methoxy-2-methyl-2H-indazole-3-carboxamide]	47.9	218 to 219 °C (dec.)	–
Cl.Cn1nc2ccccc2c1C(=O)NC1CCN(CCc2ccc(F)cc2)CC1	–	224 to 228 °C	–
Cl.Cn1nc2ccccc2c1C(=O)N1CCC(CNCCc2ccc(F)cc2)CC1 [Compound 10, 2-(4-Fluorophenyl)-N-({1-[(2-methyl-2H-indazol-3-yl)carbonyl)piperidin-4-yl}methyl]ethanamine hydrochloride]	263	198 to 199 °C	–
Cn1nc2ccccc2c1C(=O)NC1CCN(CCCc2ccc(F)cc2)CC1 [Compound 22, N-{1-[3-(4-fluorophenyl)propyl]piperidin-4-yl}-2-methyl-2H-indazole-3-carboxamide]	–	162 to 165 °C	–
Cl.Cn1nc2ccccc2c1C(=O)NCC1CCN(CCc2ccc(F)cc2)CC1 [Compound 8, N-({1-[2-(4-Fluorophenyl)ethyl]piperidin-4-yl}methyl)-2-methyl-2H-indazole-3-carboxamide hydrochloride]	15.8	208 to 209 °C	Ki [1]: 1.62 nM; Ki [2]: 53.7 nM
Cn1nc2ccccc2c1C(=O)NC1CCN(Cc2ccccc2)CC1 [Compound 21, N-(1-benzylpiperidin-4-yl)-2-methyl-2H-indazole-3-carboxamide]	–	167 to 169 °C	–
Cn1nc2ccccc2c1C(=O)NC1CCN(CCc2ccc(F)cc2)C1 (stereo not shown) [Compound 15, N-{1-[2-(4-fluorophenyl)ethyl]pyrrolidin-3-yl}-2-methyl-2H-indazole-3-carboxamide]	–	117 to 119 °C	–
Cn1nc2ccccc2c1C(=O)NCCCN1CCC(c2ccc(F)cc2)CC1 [Compound 20, N-{3-[4-(4-fluorophenyl)piperidin-1-yl]propyl}-2-methyl-2H-indazole-3-carboxamide]	–	136 to 140 °C	–
Cn1nc2ccccc2c1C(=O)NCC1CCN(CCc2ccccc2)CC1 [Compound 1, 2-Methyl-N-{[1-(2-phenylethyl)piperidin-4-yl]methyl}-2H-indazole-3-carboxamide hydrochloride hydrate]	32.4	–	Ki [1]: 2.63 nM; Ki [2]: 89.1 nM
N,2-Dimethyl-N-{[1-(2-phenylethyl)piperidin-4-yl]methyl}-2H-indazole-3-carboxamide hydrochloride hemihydrate [Compound 2]	–	–	Ki [4]: 813 nM
Cn1nc2ccccc2c1C(=O)NC1CCN(CCc2ccccc2F)CC1 [Compound 18, N-{1-[2-(2-fluorophenyl)ethyl)piperidin-4-yl}-2-methyl-2H-indazole-3-carboxamide]	–	164 to 166 °C	–
